What was measured:
glucosidase I = molecular target: T1, glucosidase I (Bos taurus, UniProt A0A3Q1M9D9); assay: Assay for glucosidase I activity (14C-Glc3Man9GlcNAc2 substrate, ConA-Sepharose, scintillation counting); type: biochemical; details: affinity purified glucosidase I from calf pancreas microsomes; for inhibition at 1000 µM: at 1 mM concentration, read-out: inhibition of glycosidase I activity
T1 construct: Glucosidase I was solubilized from calf pancreas microsomes; from tissue
T1 sequence (A0A3Q1M9D9 1-839): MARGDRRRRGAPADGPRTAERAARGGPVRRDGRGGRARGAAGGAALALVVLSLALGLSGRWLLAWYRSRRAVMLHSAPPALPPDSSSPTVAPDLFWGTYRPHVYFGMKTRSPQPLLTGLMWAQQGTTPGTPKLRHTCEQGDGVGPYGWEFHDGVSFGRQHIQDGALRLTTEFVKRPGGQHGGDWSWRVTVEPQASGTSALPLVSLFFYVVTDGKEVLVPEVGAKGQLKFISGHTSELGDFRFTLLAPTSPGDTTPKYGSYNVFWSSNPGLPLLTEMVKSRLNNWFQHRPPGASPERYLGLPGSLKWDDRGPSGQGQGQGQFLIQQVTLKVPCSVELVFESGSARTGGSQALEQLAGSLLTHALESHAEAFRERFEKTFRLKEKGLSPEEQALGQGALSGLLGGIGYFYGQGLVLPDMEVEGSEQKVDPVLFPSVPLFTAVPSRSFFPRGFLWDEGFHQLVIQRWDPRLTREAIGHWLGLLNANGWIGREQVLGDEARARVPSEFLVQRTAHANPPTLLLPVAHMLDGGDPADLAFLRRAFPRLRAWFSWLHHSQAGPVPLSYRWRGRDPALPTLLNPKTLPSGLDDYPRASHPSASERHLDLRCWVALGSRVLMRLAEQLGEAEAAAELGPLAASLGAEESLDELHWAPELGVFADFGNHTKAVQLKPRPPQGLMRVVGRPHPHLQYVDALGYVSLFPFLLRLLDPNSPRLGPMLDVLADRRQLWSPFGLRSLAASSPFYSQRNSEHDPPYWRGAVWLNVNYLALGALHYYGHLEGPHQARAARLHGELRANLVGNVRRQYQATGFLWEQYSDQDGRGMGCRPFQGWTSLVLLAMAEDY
Method: Some of the compounds which are modified analogues of the trisaccharides corresponding to the end tail of precursor oligosaccharides Glc3 Man9 GlcNAc2 -PP-Dol, were evaluated as inhibitors of glucosidase I activity. Glucosidase I was purified by a literature procedure as follows. To prepare an affinity matrix, carboxypentyl-deoxynojirimycin was coupled with Affigel 102 according to Shailubhai et al^19. Glucosidase I was solubilized from calf pancreas microsomes, and purified from glucosidase II activity by affinity chromatography according to the same authors.
^14 C-labelled Glc3 Man9 GlcNAc2 -PP-Dol was prepared by the incubation of UDP-[^14 C]Glc with calf pancreas microsomes as described by Herscovien et al^40. Glc3 Man9 GlcNAc2 was released by mild acid hydrolysis and purified by BioGel P4 chromatography.
Affinity purified glucosidase I was assayed as described by Saunier et al.^41 by adsorption of undigested substrate and oligosaccharide product to ConA-Sepharose and scintillation counting of [^14 C]Glc in the column eluent. Oligosaccharides as potential inhibitors were evaluated using castanospermine as a baseline inhibitor.

glucosidase = details: cited from earlier work

COC(=O)CCCCCCCCO[C@H]1O[C@H](CO)[C@@H](O)[C@H](O[C@H]2O[C@H](CO)[C@@H](O)[C@H](O)[C@H]2O[C@H]2O[C@H](C)[C@@H](O)[C@H](O)[C@H]2O)[C@H]1O [Compound 49, 8-Methoxycarbonyl 3-O-[2-O-(6deoxy-α-D-glucopyranosyl)-α-D-glucopyranosyl]-α-D-glucopyranoside]
glucosidase I inhibitory activity (result in words) (glucosidase I): completely eliminated

COC(=O)CCCCCCCCO[C@H]1O[C@H](CO)[C@@H](O)[C@H](O[C@H]2O[C@H](CO)[C@@H](O)[C@H](O)[C@H]2O[C@H]2O[C@H](CO)[C@@H](O)[C@H](O)[C@H]2O)[C@H]1O [Compound 40, 8-methoxycarbonyloctyl 3-O-[2-O-(α-D-glucopyranosyl)-α-D-glucopyranosyl]-α-D-glucopyranoside]
inhibition at 1000 µM (glucosidase I): 100%

COC(=O)CCCCCCCCO[C@H]1O[C@H](CO)[C@@H](O)[C@H](O[C@H]2O[C@H](CO)[C@@H](O)[C@H](O)[C@H]2O[C@H]2O[C@H](CO)[C@@H](O)C[C@H]2O)[C@H]1O [Compound 45, 8-methoxycarbonyloctyl 3-O-[2-O-(3-deoxy-α-D-glucopyranosyl)-α-D-glucopyranosyl]-α-D-glucopyranoside]
inhibition at 1000 µM (glucosidase I): 50%

OC[C@H]1NC[C@H](O)[C@@H](O)[C@@H]1O [deoxynojirimycin]
concentration required to induce the inhibitory effect in vitro (glucosidase): at least 1 mmol/l
